Measurements as given in ChEMBL document CHEMBL2074409, “P-glycoprotein plays a role in the oral absorption of BMS-387032, a potent cyclin-dependent kinase 2 inhibitor, in rats” (Cancer Chemother Pharmacol, 2004).

Target: ATP-dependent translocase ABCB1 (Homo sapiens, UniProt P08183)
Assay: TP_TRANSPORTER: transepithelial transport of BMS387032 at a concentration of 200uM in Caco-2 cells
Format: functional, cell-based
Settings: caco-2, 200 µM

ATP-dependent translocase ABCB1, sequence (P08183 whole entry): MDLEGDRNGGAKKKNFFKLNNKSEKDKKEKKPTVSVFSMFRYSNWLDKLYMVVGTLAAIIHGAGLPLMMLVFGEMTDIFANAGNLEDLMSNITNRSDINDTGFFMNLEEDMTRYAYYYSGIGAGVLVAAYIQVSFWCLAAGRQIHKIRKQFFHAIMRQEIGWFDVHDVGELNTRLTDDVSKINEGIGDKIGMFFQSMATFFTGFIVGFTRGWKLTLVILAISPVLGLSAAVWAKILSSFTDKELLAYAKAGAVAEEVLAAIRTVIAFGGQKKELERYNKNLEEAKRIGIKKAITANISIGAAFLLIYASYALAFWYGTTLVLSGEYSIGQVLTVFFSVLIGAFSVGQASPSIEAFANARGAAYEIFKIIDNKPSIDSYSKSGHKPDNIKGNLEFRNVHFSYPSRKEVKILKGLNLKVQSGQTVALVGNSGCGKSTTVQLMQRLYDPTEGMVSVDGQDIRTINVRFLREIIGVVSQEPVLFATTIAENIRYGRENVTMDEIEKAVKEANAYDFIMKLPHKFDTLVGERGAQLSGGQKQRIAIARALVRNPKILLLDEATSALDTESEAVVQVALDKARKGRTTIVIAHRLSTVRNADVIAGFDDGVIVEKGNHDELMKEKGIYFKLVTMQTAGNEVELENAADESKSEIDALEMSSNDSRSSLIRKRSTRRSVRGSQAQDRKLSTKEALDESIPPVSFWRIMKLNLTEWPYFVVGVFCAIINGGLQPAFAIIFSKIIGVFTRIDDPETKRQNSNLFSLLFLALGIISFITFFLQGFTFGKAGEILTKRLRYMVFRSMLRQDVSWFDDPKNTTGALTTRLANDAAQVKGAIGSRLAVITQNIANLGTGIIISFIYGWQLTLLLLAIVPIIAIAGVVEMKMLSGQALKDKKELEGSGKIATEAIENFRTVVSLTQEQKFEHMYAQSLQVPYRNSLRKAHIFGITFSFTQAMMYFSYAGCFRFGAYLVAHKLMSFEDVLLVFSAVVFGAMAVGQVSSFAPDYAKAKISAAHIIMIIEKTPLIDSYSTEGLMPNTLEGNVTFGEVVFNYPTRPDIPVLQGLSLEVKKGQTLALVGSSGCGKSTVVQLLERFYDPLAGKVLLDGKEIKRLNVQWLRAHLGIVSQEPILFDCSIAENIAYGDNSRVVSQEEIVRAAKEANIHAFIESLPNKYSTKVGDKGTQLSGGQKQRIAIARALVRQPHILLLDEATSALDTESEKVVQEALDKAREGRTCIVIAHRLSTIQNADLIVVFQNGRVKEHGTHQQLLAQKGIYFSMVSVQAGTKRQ

Structure (SMILES): CC(C)(C)c1cnc(CSc2cnc(NC(=O)C3CCNCC3)s2)o1 [BMS-387032]
- Activity: substrate [+]
